Assay results taken from the supplement of paper PMC13380429.

Columns and labels:
Conditions in all cases: 72 h
U2OS [1] = assay: drug sensitivity score (DSS) for viability; higher = more toxic; extreme values may be limits of the assay
Vero E6 [2] = assay: as above
Calu-3 [3] = assay: as above
Caco-2 [4] = assay: as above
HepG2 [5] = assay: as above
Calu-3 [6] = assay: relative viability EC50 (midpoint between 100% and the lowest measured viability); higher = less toxic
Caco-2 [7] = assay: as above
U2OS [8] = assay: cell viability relative to DMSO; higher = less toxic
Vero E6 [9] = assay: as above
Calu-3 [10] = assay: as above
Caco-2 [11] = assay: as above
HepG2 [12] = assay: as above
U2OS [13] = assay: relative viability EC50 (midpoint between 100% and the lowest measured viability); higher = less toxic
Vero E6 [14] = assay: as above
HepG2 [15] = assay: as above

Row | Compound | drug sensitivity score (U2OS [1]) | drug sensitivity score (Vero E6 [2]) | drug sensitivity score (Calu-3 [3]) | drug sensitivity score (Caco-2 [4]) | drug sensitivity score (HepG2 [5]) | relative viability EC50 (Calu-3 [6]) | relative viability EC50 (Caco-2 [7]) | cell viability (U2OS [8]; 1 nM) | cell viability (U2OS [8]; 10 nM) | cell viability (U2OS [8]; 100 nM) | cell viability (U2OS [8]; 1000 nM) | cell viability (U2OS [8]; 10000 nM) | cell viability (Vero E6 [9]; 1 nM) | cell viability (Vero E6 [9]; 10 nM) | cell viability (Vero E6 [9]; 100 nM) | cell viability (Vero E6 [9]; 1000 nM) | cell viability (Vero E6 [9]; 10000 nM) | cell viability (Calu-3 [10]; 1 nM) | cell viability (Calu-3 [10]; 10 nM) | cell viability (Calu-3 [10]; 100 nM) | cell viability (Calu-3 [10]; 1000 nM) | cell viability (Calu-3 [10]; 10000 nM) | cell viability (Caco-2 [11]; 1 nM) | cell viability (Caco-2 [11]; 10 nM) | cell viability (Caco-2 [11]; 100 nM) | cell viability (Caco-2 [11]; 1000 nM) | cell viability (Caco-2 [11]; 10000 nM) | cell viability (HepG2 [12]; 1 nM) | cell viability (HepG2 [12]; 10 nM) | cell viability (HepG2 [12]; 100 nM) | cell viability (HepG2 [12]; 1000 nM) | cell viability (HepG2 [12]; 10000 nM) | relative viability EC50 (U2OS [13]) | relative viability EC50 (Vero E6 [14]) | relative viability EC50 (HepG2 [15])
1 | CN1CCN(c2cccc(Nc3nc4c(-c5ccc(S(C)(=O)=O)cc5)cccn4n3)c2)CC1 | 2.1 | 1.6 | 0 | 0 | 3.6 | > 10 µM | > 10 µM | 96.1% | 102% | 94.8% | 95.8% | 68.9% | 96.4% | 95.1% | 94.8% | 96.3% | 73.6% | 97.9% | 99.4% | 91.8% | 125% | 136% | 78.9% | 95.2% | 95.1% | 93.1% | 91% | 100% | 95.9% | 94.1% | 84.8% | 58.9% |  |  | 
2 | COc1cc(NC(=O)c2ccccn2)ccc1Cl | 0 | 0 |  | 0 | 0 |  | > 10 µM | 100% | 95.3% | 101% | 99.4% | 96.3% | 101% | 99% | 96.3% | 102% | 95.3% |  |  |  |  |  | 100% | 94.5% | 95.3% | 90.8% | 92.3% | 92.9% | 99.2% | 91% | 102% | 94.9% | > 10 µM | > 10 µM | > 10 µM
3 | CS(=O)(=O)CCNCc1nc(-c2ccc3ncnc(Nc4ccc(OCc5cccc(F)c5)c(Cl)c4)c3c2)cs1 | 0 | 3.7 |  | 3.5 | 0 |  |  | 99.9% | 100% | 96.7% | 94.2% | 89.8% | 95% | 98.3% | 93.3% | 79% | 72.5% |  |  |  |  |  | 97.1% | 97.5% | 90.5% | 80.8% | 73.1% | 106% | 111% | 93.5% | 102% | 104% | > 10 µM |  | > 10 µM
4 | Cn1ccc2cc3c(cc21)CCN3C(=O)Nc1cccnc1 | 0 | 0 |  | 0.1 | 0 |  | > 10 µM | 98.2% | 102% | 93.9% | 96% | 95.1% | 99.1% | 96.8% | 100% | 95.5% | 100% |  |  |  |  |  | 88.8% | 93.2% | 98.1% | 104% | 81.3% | 105% | 114% | 95.7% | 95.3% | 100% | > 10 µM | > 10 µM | > 10 µM
5 | Nc1ncnc2[nH]nc(Nc3ccc(F)cc3)c12 | 0.8 | 2.3 | 1.2 | 2.1 | 2.1 | > 10 µM |  | 98.5% | 98.9% | 98.4% | 96% | 83% | 107% | 103% | 99.8% | 101% | 54.4% | 102% | 101% | 101% | 95.6% | 79.2% | 95% | 93.5% | 106% | 93.1% | 73.4% | 114% | 101% | 108% | 96.5% | 66.2% | > 10 µM |  | 
6 | O=C(C1CC1)N1CC[C@@H](Cc2n[nH]c(=O)n2-c2ccc(-c3ccc4occc4c3)cc2)C1 | 0 | 0 |  | 1.7 | 3.6 |  | > 10 µM | 102% | 96.2% | 101% | 97.3% | 99.7% | 97.4% | 101% | 98.8% | 100% | 98.9% |  |  |  |  |  | 104% | 97.8% | 91.9% | 89.5% | 76.3% | 109% | 106% | 93.2% | 80.2% | 71.2% | > 10 µM | > 10 µM | 
7 | O=C1NC(=O)c2cc(Nc3ccccc3)c(Nc3ccccc3)cc21 |  | 0.3 | 0 | 0.3 | 2.2 | > 10 µM | > 10 µM |  |  |  |  |  | 96.3% | 99.2% | 98.6% | 97.4% | 86.3% | 108% | 96.9% | 106% | 98.5% | 89.3% | 92.3% | 101% | 91.7% | 102% | 82.5% | 109% | 106% | 105% | 100% | 56.4% |  | > 10 µM | 
8 | O=C1Nc2cc(Cl)c(Cl)cc2N2CCNC[C@H]12 | 0 | 0 | 0 | 0.7 |  | > 10 µM | > 10 µM | 102% | 94.9% | 100% | 95% | 96.2% | 104% | 100% | 100% | 99.1% | 95.7% | 103% | 95.1% | 97.3% | 97.7% | 92.5% | 110% | 100% | 102% | 92.2% | 85.9% |  |  |  |  |  | > 10 µM | > 10 µM | 
9 | O=c1[nH]c([C@@H]2CCCN2)nc2c1oc1ccc(Cl)cc12 | 0 | 2.4 |  | 1.2 | 4.2 |  | > 10 µM | 95% | 100% | 93.4% | 96.7% | 90.9% | 103% | 99.7% | 104% | 90.9% | 71.8% |  |  |  |  |  | 96.9% | 87% | 87.5% | 93.5% | 83.1% | 97% | 98.2% | 104% | 83.5% | 60.3% | > 10 µM |  | 
10 | OC[C@H]1O[C@@H](n2cnc3c(NC4CCCC4)nc(Cl)nc32)[C@H](O)[C@@H]1O [2-chloro-N6-cyclopentyladenosine] |  | 0 | 0 |  |  | > 10 µM |  |  |  |  |  |  | 102% | 106% | 98.5% | 99.5% | 104% | 105% | 91.8% | 104% | 92.6% | 106% |  |  |  |  |  |  |  |  |  |  |  | > 10 µM | 
11 | O=C(/C=C/c1cccnc1)c1ccncc1 [3PO] | 0.5 | 0 |  | 1.8 | 0.7 |  | > 10 µM | 101% | 99.7% | 100% | 99% | 82.5% | 107% | 112% | 100% | 111% | 87.7% |  |  |  |  |  | 103% | 97.1% | 99.7% | 92.3% | 77.3% | 103% | 102% | 93.2% | 112% | 72.7% | > 10 µM | > 10 µM | 
12 | CC(C)(O)CC[C@@H](O)[C@](C)(O)[C@H]1CC[C@@]2(O)C3=CC(=O)[C@@H]4C[C@@H](O)[C@@H](O)C[C@]4(C)[C@H]3CC[C@]12C [20-hydroxyecdysone] | 0 |  | 0 | 0 |  | > 10 µM | > 10 µM | 98% | 101% | 99.2% | 99.7% | 102% |  |  |  |  |  | 93.6% | 101% | 91% | 102% | 114% | 98.8% | 98.4% | 85.5% | 96.8% | 97.1% |  |  |  |  |  | > 10 µM |  | 
13 | COc1cccc(C=NCCN=Cc2cccc(OC)c2[O-])c1[O-].[Cl-].[Mn+3] [EUK-134] | 0 | 0 | 0 | 0 | 1.1 | > 10 µM | > 10 µM | 101% | 96.6% | 107% | 99.3% | 99% | 98.4% | 102% | 99.3% | 105% | 96% | 110% | 87.9% | 102% | 94% | 99.3% | 94.7% | 89% | 91.5% | 92% | 85.6% | 95% | 109% | 99.5% | 101% | 72.3% | > 10 µM | > 10 µM | 
14 | CC(C)(N)c1cc(C(=O)N[C@@H]2CCc3ccc(Oc4ccnc5c4CCC(=O)N5)cc3C2)cc(C(F)(F)F)c1 [ML786] | 7.9 | 3.8 |  | 2.7 | 17.5 |  |  | 101% | 98.6% | 100% | 82.4% | 9.6% | 106% | 105% | 112% | 99% | 33.5% |  |  |  |  |  | 108% | 92.7% | 104% | 90.8% | 68.5% | 99.2% | 110% | 62.4% | 31.1% | 6.8% | 1.76 µM | 3.06 µM | 0.221 µM
15 | Cc1ccc(-c2nn(C(C)(C)C)c3ncnc(N)c23)cc1 [PP-1] | 3.8 | 2.3 | 4.5 | 3.4 | 2.3 | 1.94 µM |  | 100% | 94.8% | 104% | 90.9% | 55% | 107% | 104% | 103% | 105% | 48.7% | 85.9% | 96.9% | 94% | 91.2% | 43.9% | 102% | 96.2% | 103% | 91.5% | 59.7% | 106% | 91.8% | 92.8% | 89.3% | 69% |  | 3.66 µM | 
16 | CC(C)=CCc1c(O)cc(O)c2c(=O)c(O)c(-c3ccc(C(F)(F)F)cc3)oc12 [SNG-1153] | 3.1 | 3.8 | 1.5 | 3.9 | 3 |  | 2.6 µM | 96.7% | 94.7% | 94.5% | 99.9% | 43.2% | 100% | 94.3% | 100% | 93% | 50.7% | 114% | 89.6% | 108% | 99.3% | 68.1% | 92.1% | 93.8% | 98.1% | 95.8% | 40% | 97.3% | 98.8% | 106% | 103% | 40.2% | 3.14 µM |  | 3.43 µM
